According to patent publication US20120196766A1, “Therapeutic Use of Farnesyltransferase Inhibitors and Methods of Monitoring the Efficacy Thereof” (priority 2004, published 2012):

Test system: THP-1 cells
Assay: cDNA microarray analysis of LPS-induced gene transcription in THP-1 cells
Assay type: cell-based, Human
Conditions: LPS 100 ng/ml, tipifarnib 5 μM
Method: THP-1 cells were cultured in RPMI1640 medium, supplemented with 10% FBS/100 units/ml Penicillin/10 μg/ml Streptomycin at 37° C., under 5% CO2. […] For the untreated control group (no LPS, no compound) and LPS alone group, equivalent volumes of DMSO were added to the medium. Cells were cultured at 37° C. and pellets were collected at 0 hr, 1 hr, 3 hr, 6 hr, 12 hr & 24 hr. Cell pellets were stored at −80° C. if RNA isolation was not conducted immediately. For experiments to study cytokine secretion in culture supernatants, THP-1 cells were washed twice with PBS, resuspended at 3.4×10^5/ml and cultured in 96-well plates at 250 μL, per well at 37° C. […] Supernatants were collected at different time points as indicated in the figures and were kept at ≦−20° C. until analysis of cytokine production.
Total RNA was isolated using RNeasy mini kit from QIAGEN (Valencia, Calif.) according to the manufacturer's instructions. RNA samples were stored at −80° C.
Five μg of total RNA was linearly amplified to double-stranded cDNA using T7-based amplification. The cDNA was purified using the QIAquick 96 PCR purification kit (QIAGEN Valencia, Calif.), and used to generate amplified (a) RNA using AmpliScribe™ T7 High Yield Transcription Kit (Epicentre, Madison, Wis.). Ten μg of purified aRNA was reverse transcribed to cDNA using the SuperScript RTII kit (Invitrogen) and labeled by direct incorporation of Cy3-dCTP. The generated cDNA probe was used for hybridizing to cDNA microarrays.
Each clone was spotted in duplicate on the array.

`Cn1cncc1C(N)(c1ccc(Cl)cc1)c1ccc2c(c1)c(-c1cccc(Cl)c1)cc(=O)n2C` (single isomer, unassigned; (+)) [tipifarnib, (+)-6-[amino(4-chlorophenyl)(1-methyl-1H-imidazol-5-yl)methyl]-4-(3-chlorophenyl)-1-methyl-2(1H)-quinolinone] was tested, and the “Fold-change (tipifarnib/LPS vs LPS) ABCB8” value (1 hr) was 1.07, the “Fold-change (tipifarnib/LPS vs LPS) B2M” value (1 hr) was 1.15 and the “Fold-change (tipifarnib/LPS vs LPS) C3AR1” value (1 hr) was 1.00. The “Fold-change (tipifarnib/LPS vs LPS) CCL2” value (1 hr) was −1.07, the “Fold-change (tipifarnib/LPS vs LPS) CCL3” value (1 hr) was −1.07 and the “Fold-change (tipifarnib/LPS vs LPS) CCL4” value (1 hr) was 1.07. The “Fold-change (tipifarnib/LPS vs LPS) CCL8” value (1 hr) was −1.07, the “Fold-change (tipifarnib/LPS vs LPS) CCND1” value (1 hr) was 1.00 and the “Fold-change (tipifarnib/LPS vs LPS) CXCL11” value (1 hr) was 1.00. For the same molecule, the “Fold-change (tipifarnib/LPS vs LPS) GNPNAT1” value (1 hr) was 1.00, the “Fold-change (tipifarnib/LPS vs LPS) IER3” value (1 hr) was 1.32 and the “Fold-change (tipifarnib/LPS vs LPS) IFI16” value (1 hr) was 1.07. For the same molecule, the “Fold-change (tipifarnib/LPS vs LPS) IFIT1” value (1 hr) was 1.00, the “Fold-change (tipifarnib/LPS vs LPS) IFNB1” value (1 hr) was −1.23 and the “Fold-change (tipifarnib/LPS vs LPS) IGFBP3” value (1 hr) was 1.00. For the same molecule, the “Fold-change (tipifarnib/LPS vs LPS) IL1B” value (1 hr) was 1.07, the “Fold-change (tipifarnib/LPS vs LPS) IL1RN” value (1 hr) was −1.15 and the “Fold-change (tipifarnib/LPS vs LPS) IL8” value (1 hr) was −1.07. The “Fold-change (tipifarnib/LPS vs LPS) KCNK17” value (1 hr) was −1.07, the “Fold-change (tipifarnib/LPS vs LPS) LAP3” value (1 hr) was −1.07 and the “Fold-change (tipifarnib/LPS vs LPS) LGR7” value (1 hr) was 1.23. The “Fold-change (tipifarnib/LPS vs LPS) MMP9” value (1 hr) was −1.07, the “Fold-change (tipifarnib/LPS vs LPS) MX1” value (1 hr) was 1.00 and the “Fold-change (tipifarnib/LPS vs LPS) MYD88” value (1 hr) was 1.07. For the same molecule, the “Fold-change (tipifarnib/LPS vs LPS) NEXN” value (1 hr) was 1.00, the “Fold-change (tipifarnib/LPS vs LPS) NFKB2” value (1 hr) was −1.07 and the “Fold-change (tipifarnib/LPS vs LPS) PLAUR” value (1 hr) was 1.00. For the same molecule, the “Fold-change (tipifarnib/LPS vs LPS) PTX3” value (1 hr) was 1.15, the “Fold-change (tipifarnib/LPS vs LPS) S100A9” value (1 hr) was 1.00 and the “Fold-change (tipifarnib/LPS vs LPS) STAT1” value (1 hr) was 1.23. The “Fold-change (tipifarnib/LPS vs LPS) TAP1” value (1 hr) was −1.23, the “Fold-change (tipifarnib/LPS vs LPS) TAP2” value (1 hr) was 1.07 and the “Fold-change (tipifarnib/LPS vs LPS) TRIM22” value (1 hr) was 1.00. The “Fold-change (tipifarnib/LPS vs LPS) UBE2L6” value (1 hr) was 1.00, the “Fold-change (tipifarnib/LPS vs LPS) ABCB8” value (3 hr) was 1.00 and the “Fold-change (tipifarnib/LPS vs LPS) B2M” value (3 hr) was 1.00. The “Fold-change (tipifarnib/LPS vs LPS) C3AR1” value (3 hr) was 1.07, the “Fold-change (tipifarnib/LPS vs LPS) CCL2” value (3 hr) was −1.32 and the “Fold-change (tipifarnib/LPS vs LPS) CCL3” value (3 hr) was 1.00. For the same molecule, the “Fold-change (tipifarnib/LPS vs LPS) CCL8” value (3 hr) was 1.00, the “Fold-change (tipifarnib/LPS vs LPS) CCND1” value (3 hr) was −1.07 and the “Fold-change (tipifarnib/LPS vs LPS) CXCL11” value (3 hr) was −1.07. For the same molecule, the “Fold-change (tipifarnib/LPS vs LPS) GNPNAT1” value (3 hr) was 1.00, the “Fold-change (tipifarnib/LPS vs LPS) IFI16” value (3 hr) was 1.00 and the “Fold-change (tipifarnib/LPS vs LPS) IFIT1” value (3 hr) was 1.00. The “Fold-change (tipifarnib/LPS vs LPS) IFNB1” value (3 hr) was −1.15, the “Fold-change (tipifarnib/LPS vs LPS) IGFBP3” value (3 hr) was −1.07 and the “Fold-change (tipifarnib/LPS vs LPS) IL1B” value (3 hr) was 1.32. The “Fold-change (tipifarnib/LPS vs LPS) IL1RN” value (3 hr) was −1.15, the “Fold-change (tipifarnib/LPS vs LPS) IL8” value (3 hr) was −1.23 and the “Fold-change (tipifarnib/LPS vs LPS) KCNK17” value (3 hr) was −1.15. The “Fold-change (tipifarnib/LPS vs LPS) LAP3” value (3 hr) was −1.07, the “Fold-change (tipifarnib/LPS vs LPS) LGR7” value (3 hr) was −1.15 and the “Fold-change (tipifarnib/LPS vs LPS) LY6E” value (3 hr) was −1.15. The “Fold-change (tipifarnib/LPS vs LPS) MMP9” value (3 hr) was −1.07, the “Fold-change (tipifarnib/LPS vs LPS) MX1” value (3 hr) was −1.07 and the “Fold-change (tipifarnib/LPS vs LPS) MYD88” value (3 hr) was −1.15. For the same molecule, the “Fold-change (tipifarnib/LPS vs LPS) NEXN” value (3 hr) was 1.00, the “Fold-change (tipifarnib/LPS vs LPS) NFKB2” value (3 hr) was 1.23 and the “Fold-change (tipifarnib/LPS vs LPS) PLAUR” value (3 hr) was −1.23. For the same molecule, the “Fold-change (tipifarnib/LPS vs LPS) PTX3” value (3 hr) was −1.15, the “Fold-change (tipifarnib/LPS vs LPS) S100A9” value (3 hr) was −1.15 and the “Fold-change (tipifarnib/LPS vs LPS) STAT1” value (3 hr) was −1.32.
